This is an account of results in ChEMBL document CHEMBL1201862, “PubChem BioAssay data set” (2004).

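96-well plates; 48 h exposure; 5 concentrations. Endpoints by linear interpolation between flanking doses. Not reached: highest tested concentration assigned. GI50 = concentration required for 50% inhibition of growth.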 Active and inactive are the calls of the source. Rule as the data show it: active = GI50 up to about 1.1 µM and inactive = higher.

Among the test systems are COLO 205; TK-10; RPMI-8226; SF-295; MCF7; OVCAR-3; KM12; HOP-92; HCT-116; SNB-75; HCC 2998; 786-0; A498; SK-OV-3; LOX IMVI; K562; U-251; SK-MEL-5; HCT-15; Malme-3M.
Experiment in all cases: NCI-60 cell line screen, 48 h

For `O=C(O)CN(CC(=O)O)Cc1cc2c(cc1O)Oc1cc(O)c(CN(CC(=O)O)CC(=O)O)cc1C21OC(=O)c2ccccc21` [OFTASCEINE], the GI50 with COLO 205, in the experiment with TK-10, in the experiment with RPMI-8226, in the experiment with SF-295, with MCF7 and with OVCAR-3 was > 100 µM (inactive) each time. Besides, the GI50 in the experiment with KM12, in the experiment on HOP-92, with HCT-116, with SNB-75, in the experiment on HCC 2998 and in the experiment on 786-0 was > 100 µM (inactive) each time. For the same compound, the GI50 in the experiment with A498, with SK-OV-3, in the experiment with LOX IMVI, in the experiment with K562, in the experiment on U-251 and in the experiment with SK-MEL-5 was > 100 µM (inactive) each time. In addition, the GI50 in the experiment on HCT-15 is above 100 µM.

For the compound `CN1CCN(/C(N)=C(\C#N)C(=O)Nc2ccc(Cl)cc2)CC1`, the GI50 is 18.7 µM (inactive) with COLO 205; 27.5 µM (inactive) in the experiment with RPMI-8226; 75.7 µM (inactive) with SF-295; 68.4 µM (inactive) in the experiment on MCF7; 41.7 µM (inactive) with OVCAR-3; 59 µM (inactive) in the experiment on KM12. Further, the GI50 with HOP-92 is > 100 µM (inactive); in the experiment with HCT-116, 41.6 µM (inactive); with SNB-75, > 100 µM (inactive); with HCC 2998, 59.6 µM (inactive); in the experiment with 786-0 it was 95.5 µM (inactive); in the experiment with A498, 40.4 µM (inactive). For the same compound, the GI50 with SK-OV-3 is > 100 µM (inactive); with LOX IMVI, 47.9 µM (inactive); in the experiment with K562, 23 µM (inactive); in the experiment with U-251, 96.8 µM (inactive); with SK-MEL-5 it was 27.5 µM (inactive); with HCT-15 it was 57.9 µM.

Regarding `CC(NC(=O)OC(C)(C)C)C(=O)NC(Cc1ccccc1)C(=O)NCC(=O)Oc1c(Cl)c(Cl)c(Cl)c(Cl)c1Cl` (stereo not drawn), the GI50 with COLO 205 is 29.7 µM (inactive); in the experiment with TK-10 it was 27 µM (inactive); in the experiment with RPMI-8226 it was 23.2 µM (inactive); in the experiment with MCF7 it was 21.9 µM (inactive); with Malme-3M, 20.7 µM (inactive); with KM12, 25 µM (inactive). Further, the GI50 in the experiment on HOP-92 is 12.5 µM (inactive); in the experiment with HCT-116, 19.6 µM (inactive); with SNB-75 it was 34.6 µM (inactive); in the experiment on HCC 2998 it was 15.3 µM (inactive); with 786-0, 21.2 µM (inactive); in the experiment on A498, 21.2 µM (inactive). In addition, the GI50 in the experiment on K562 is 30.6 µM (inactive); in the experiment with U-251 it was 19.7 µM (inactive); in the experiment on SK-MEL-5 it was 13.6 µM (inactive); with HCT-15 it was above 10 µM.

Regarding `COc1cc(NCc2ccc3nc(-c4ccccc4)c(N)nc3c2)cc(OC)c1OC`, the GI50 in the experiment on COLO 205 was 18.8 µM (inactive); in the experiment with TK-10, 41.4 µM (inactive); in the experiment with SF-295, 35.6 µM (inactive); with MCF7 it was 28.5 µM (inactive); with OVCAR-3 it was 25.6 µM (inactive); in the experiment with Malme-3M it was 24.9 µM (inactive). Besides, the GI50 in the experiment on KM12 was 26.5 µM (inactive); in the experiment on HOP-92, 12.5 µM (inactive); in the experiment with HCT-116, 18.1 µM (inactive); with SNB-75, 19.1 µM (inactive); with HCC 2998 it was 51.8 µM (inactive); in the experiment on 786-0 it was 35.6 µM (inactive). The GI50 was 23.3 µM (inactive) in the experiment with A498; 42.3 µM (inactive) with SK-OV-3; 41.9 µM (inactive) in the experiment on LOX IMVI; 41 µM (inactive) with K562; 39.3 µM (inactive) with U-251; 15.3 µM (inactive) in the experiment on SK-MEL-5. Besides, the GI50 in the experiment on HCT-15 was 28.7 µM.

For the compound `N#C/C=C(/NC(=O)Nc1ccccc1)N1CCCC1`, the GI50 in the experiment on COLO 205 is > 55 µM (inactive); in the experiment with TK-10 it was > 36.2 µM (inactive); with RPMI-8226, > 82 µM (inactive); in the experiment with SF-295 it was > 31.5 µM (inactive); in the experiment on MCF7, > 33.1 µM (inactive); in the experiment with OVCAR-3 it was > 100 µM (inactive). Besides, the GI50 was > 45 µM (inactive) in the experiment on Malme-3M; > 54.8 µM (inactive) in the experiment on KM12; > 48 µM (inactive) in the experiment with HOP-92; > 34.8 µM (inactive) in the experiment on HCT-116; > 30.3 µM (inactive) with HCC 2998; 31.9 µM (inactive) with 786-0. Further, the GI50 in the experiment on A498 was > 100 µM (inactive); in the experiment on SK-OV-3, > 100 µM (inactive); with LOX IMVI, > 66.7 µM (inactive); in the experiment on K562 it was > 59.4 µM (inactive); in the experiment on U-251 it was > 36.8 µM (inactive); in the experiment with SK-MEL-5, 56.4 µM (inactive). In addition, the GI50 with HCT-15 was above 56.2 µM.

In the case of `COC(=O)CC1C2CC3C(C2=O)C13` (stereo not drawn), the GI50 in the experiment with COLO 205, in the experiment on TK-10, in the experiment with SF-295, in the experiment on MCF7, in the experiment on OVCAR-3 and in the experiment on Malme-3M was > 100 µM (inactive) throughout. Also, the GI50 is > 100 µM (inactive) in the experiment with KM12; > 100 µM (inactive) in the experiment on HOP-92; > 100 µM (inactive) with HCT-116; 58.1 µM (inactive) with SNB-75; > 100 µM (inactive) with HCC 2998; > 100 µM (inactive) in the experiment with 786-0. In addition, the GI50 in the experiment on A498, in the experiment with SK-OV-3, with LOX IMVI, in the experiment on K562, in the experiment on U-251 and in the experiment with SK-MEL-5 was > 100 µM (inactive) throughout. Further, in the experiment on HCT-15, the GI50 was above 100 µM.

As for `O=C(c1ccccc1)c1ccc2[nH]c(-c3c(Cl)c(Cl)c(Cl)c(Cl)c3C(=O)Nc3ccco3)nc2c1`, the GI50 in the experiment on COLO 205 is 45.5 µM (inactive); in the experiment with TK-10, 39.7 µM (inactive); with RPMI-8226, 19.8 µM (inactive); in the experiment on SF-295, 23.6 µM (inactive); with MCF7 it was 24.8 µM (inactive); in the experiment on OVCAR-3, 49.4 µM (inactive). Moreover, the GI50 in the experiment on KM12 is 33 µM (inactive); in the experiment with HOP-92 it was 40.5 µM (inactive); in the experiment with HCT-116, 34 µM (inactive); in the experiment with SNB-75, > 100 µM (inactive); in the experiment with HCC 2998, 15.4 µM (inactive); in the experiment with 786-0, 96.2 µM (inactive). In addition, the GI50 in the experiment on A498 is 20 µM (inactive); in the experiment with SK-OV-3, > 100 µM (inactive); with LOX IMVI, 38.1 µM (inactive); in the experiment with K562, 16.6 µM (inactive); in the experiment on U-251, 42.5 µM (inactive); in the experiment on SK-MEL-5 it was 28.4 µM (inactive). In addition, the GI50 with HCT-15 is 27.2 µM.

As to `Cn1nc2ccc(Nc3cc(=O)[nH]c4ccc5nn(C)nc5c34)cc2n1`, the GI50 in the experiment on COLO 205, in the experiment on TK-10, in the experiment with SF-295, in the experiment with MCF7, with OVCAR-3 and in the experiment with Malme-3M was > 100 µM (inactive) in each case. Moreover, the GI50 in the experiment with KM12, with HOP-92, with HCT-116, in the experiment with SNB-75, with HCC 2998 and with 786-0 was > 100 µM (inactive) each time. The GI50 with A498 was > 100 µM (inactive); in the experiment with SK-OV-3, > 100 µM (inactive); with K562, 50 µM (inactive); with U-251, > 100 µM (inactive); in the experiment on SK-MEL-5, > 100 µM (inactive); in the experiment with HCT-15, above 100 µM.

Turning to `COc1ccc(C(=O)c2ccc(-n3c4ccccc4c4ccc5c(c43)C(=O)C=CC5=O)cc2)cc1`, the GI50 was 2.89 µM (inactive) in the experiment on COLO 205; 1.43 µM (inactive) in the experiment on TK-10; 0.794 µM (active) with RPMI-8226; 5.43 µM (inactive) in the experiment with SF-295; 0.855 µM (active) with MCF7; 1.14 µM (inactive) in the experiment with OVCAR-3. Besides, the GI50 was 3.68 µM (inactive) in the experiment on KM12; 1.99 µM (inactive) in the experiment on HOP-92; 0.92 µM (active) in the experiment with HCT-116; 3.66 µM (inactive) with SNB-75; 5.61 µM (inactive) in the experiment with HCC 2998; 0.586 µM (active) with 786-0. The GI50 in the experiment with A498 was 1.58 µM (inactive); with SK-OV-3 it was 13.7 µM (inactive); in the experiment with LOX IMVI, 1.25 µM (inactive); in the experiment with K562, 0.676 µM (active); in the experiment on U-251 it was 1.69 µM (inactive); in the experiment on SK-MEL-5 it was 4.27 µM (inactive). This compound also gave a GI50 in the experiment on HCT-15 of 1.9 µM.

On to `Cc1nn2c(C(=O)N/N=C/c3ccccc3O)c(C)nc2s1`, for which the GI50 in the experiment on COLO 205 is 59.2 µM (inactive); in the experiment on TK-10 it was > 100 µM (inactive); with SF-295 it was 85.9 µM (inactive); in the experiment with MCF7, 30.8 µM (inactive); with OVCAR-3, 3.09 µM (inactive); with Malme-3M, > 100 µM (inactive). The GI50 was > 100 µM (inactive) in the experiment on KM12; > 100 µM (inactive) in the experiment on HOP-92; 51.6 µM (inactive) with HCT-116; > 100 µM (inactive) with SNB-75; 55.1 µM (inactive) in the experiment on HCC 2998; 47.8 µM (inactive) in the experiment with 786-0. The GI50 in the experiment with A498 was 61.5 µM (inactive); with LOX IMVI, > 100 µM (inactive); in the experiment on K562, > 100 µM (inactive); in the experiment with U-251, 38 µM (inactive); with SK-MEL-5 it was 60.3 µM (inactive); in the experiment on HCT-15 it was 41.9 µM.

Consider `NC(=O)NC(=O)CCC(NS(=O)(=O)c1ccccc1)C(=O)NC(N)=O` (stereo not drawn), for which the GI50 in the experiment with COLO 205, in the experiment with TK-10, in the experiment on SF-295, with MCF7, in the experiment on OVCAR-3 and in the experiment on Malme-3M was > 100 µM (inactive) each time. For the same compound, the GI50 with KM12, in the experiment on HOP-92, in the experiment with HCT-116, with SNB-75, in the experiment with HCC 2998 and in the experiment on 786-0 was > 100 µM (inactive) throughout. In addition, the GI50 in the experiment on A498, with SK-OV-3, in the experiment with LOX IMVI, in the experiment with K562, in the experiment with U-251 and in the experiment with SK-MEL-5 was > 100 µM (inactive) throughout. The same compound came in with a GI50 in the experiment with HCT-15 above 100 µM.
